# Assay results published in patent US8476272B2, “Pharmaceutical composition for treatment of type 2 diabetes” (Jiangsu Hengrui Medicine Co., Ltd., priority 2010, dated 2013).
# Experiments:
# [1] = system: genetic fatty Wistar rats with diabetes; experiment: 14-day administration to genetic fatty Wistar rats with diabetes: plasma glucose and hemoglobin; type: in vivo; details: 14 days, compound A or MK-0431 10 mg/kg/day p.o., metformin 100 mg/kg/day, mean ± SD, n=5-6; for hemoglobin: hemoglobin Al
# Procedure: 14-19 week-old male Wistar rats were divided into 5 groups, 5-6 each group. […] Blood was collected from caudal vein. The plasma glucose and hemoglobin Al were determined respectively with a commercial kit (NC-ROPET, Nippon Chemiphar CO.) by enzyme method.
# [2] = system: genetic fatty Wistar rats with diabetes; experiment: Oral glucose loading test in genetic fatty Wistar rats with diabetes after 7 days of administration; type: in vivo; details: phosphates 30 mg/kg/day p.o., metformin 100 mg/kg/day, mean ± SD, n=5
# Procedure: 13-14 week-old male Wistar rats were divided into 5 groups, 5 each group. […] Oral glucosieloading test was conducted immediately after fasting overnight (2 g glucose/kg/5 ml, p.o.). Blood was collected from caudal vein before or 120 minutes and 240 minutes after the test, and plasma glucose was analyzed with enzyme method (Encore Chemical System; Baker).
# [3] = 0 min (before glucose load 2 g/kg p.o.)
# [4] = 120 min after glucose load 2 g/kg p.o.
# [5] = 240 min after glucose load 2 g/kg p.o.
SMILES,plasma glucose [1],hemoglobin [1],"plasma glucose [2, 3]","plasma glucose [2, 4]","plasma glucose [2, 5]"
"COC(=O)c1nc(C(F)(F)F)n2c1CN(C(=O)C[C@H](N)Cc1cc(F)c(F)cc1F)CC2 [Compound A, (R)-7-[3-amino-4-(2,4,5-trifluoro-phenyl)-butyryl]-3-trifluoromethyl-5,6,7,8-tetrahydro-imidazo[1,5-a]pyrazine-1-carboxylic acid methyl ester]",214 ± 50,5.3 ± 0.3,,,
CN(C)C(=N)N=C(N)N [metformin],327 ± 46,6.1 ± 0.6,119 ± 11 mg/dL,221 ± 62 mg/dL,107 ± 21 mg/dL
COC(=O)c1nc(C(F)(F)F)n2c1CN(C(=O)C[C@H](N)Cc1cc(F)c(F)cc1F)CC2 [phosphate of compound A],,,103 ± 11 mg/dL,137 ± 17 mg/dL,102 ± 9 mg/dL
